{"source": "the NIST ThermoML archive (doi:10.1021/je8002282)", "key": {"[1]": {"test": "xn = mol fraction of the nth substance listed", "details": "Liquid"}, "[2]": {"details": "Liquid"}}, "note": "Numbers after ± are expanded uncertainties."}
{"compound": "[C-]#[O+]", "note": "[carbon monoxide] + COC(=O)OC", "values": [{"measurement": "mass density", "setting": "[1]; 293 K, Pycnometric method, x1 = 0.0547", "value": "1078 ± 45", "unit": "kg/m3"}, {"measurement": "mass density", "setting": "[1]; 293 K, Pycnometric method, x1 = 0.0679", "value": "1036.5 ± 43", "unit": "kg/m3"}, {"measurement": "mass density", "setting": "[1]; 293 K, Pycnometric method, x1 = 0.0838", "value": "992.5 ± 40", "unit": "kg/m3"}, {"measurement": "mass density", "setting": "[1]; 293 K, Pycnometric method, x1 = 0.1138", "value": "963.5 ± 39", "unit": "kg/m3"}, {"measurement": "mass density", "setting": "[1]; 293 K, Pycnometric method, x1 = 0.1413", "value": "919.7 ± 38", "unit": "kg/m3"}, {"measurement": "mass density", "setting": "[1]; 293 K, Pycnometric method, x1 = 0.1606", "value": "865.9 ± 36", "unit": "kg/m3"}, {"measurement": "mass density", "setting": "[1]; 313 K, Pycnometric method, x1 = 0.0534", "value": "966.4 ± 42", "unit": "kg/m3"}, {"measurement": "mass density", "setting": "[1]; 313 K, Pycnometric method, x1 = 0.0646", "value": "948 ± 38", "unit": "kg/m3"}, {"measurement": "mass density", "setting": "[1]; 313 K, Pycnometric method, x1 = 0.0868", "value": "910.2 ± 37", "unit": "kg/m3"}, {"measurement": "mass density", "setting": "[1]; 313 K, Pycnometric method, x1 = 0.1087", "value": "885.7 ± 36", "unit": "kg/m3"}, {"measurement": "mass density", "setting": "[1]; 313 K, Pycnometric method, x1 = 0.1199", "value": "834.8 ± 35", "unit": "kg/m3"}, {"measurement": "mass density", "setting": "[1]; 313 K, Pycnometric method, x1 = 0.1511", "value": "786.6 ± 32", "unit": "kg/m3"}, {"measurement": "mass density", "setting": "[1]; 353 K, Pycnometric method, x1 = 0.0485", "value": "868.7 ± 35", "unit": "kg/m3"}, {"measurement": "mass density", "setting": "[1]; 353 K, Pycnometric method, x1 = 0.0677", "value": "853 ± 34", "unit": "kg/m3"}, {"measurement": "mass density", "setting": "[1]; 353 K, Pycnometric method, x1 = 0.0752", "value": "847.4 ± 36", "unit": "kg/m3"}, {"measurement": "mass density", "setting": "[1]; 353 K, Pycnometric method, x1 = 0.0873", "value": "802.4 ± 36", "unit": "kg/m3"}, {"measurement": "mass density", "setting": "[1]; 353 K, Pycnometric method, x1 = 0.0936", "value": "773.3 ± 33", "unit": "kg/m3"}, {"measurement": "mass density", "setting": "[1]; 353 K, Pycnometric method, x1 = 0.1204", "value": "720.7 ± 30", "unit": "kg/m3"}, {"measurement": "mass density", "setting": "[1]; 373 K, Pycnometric method, x1 = 0.0418", "value": "841.2 ± 34", "unit": "kg/m3"}, {"measurement": "mass density", "setting": "[1]; 373 K, Pycnometric method, x1 = 0.0545", "value": "829.8 ± 34", "unit": "kg/m3"}, {"measurement": "mass density", "setting": "[1]; 373 K, Pycnometric method, x1 = 0.0723", "value": "801.3 ± 33", "unit": "kg/m3"}, {"measurement": "mass density", "setting": "[1]; 373 K, Pycnometric method, x1 = 0.084", "value": "786.7 ± 33", "unit": "kg/m3"}, {"measurement": "mass density", "setting": "[1]; 373 K, Pycnometric method, x1 = 0.0943", "value": "754.3 ± 32", "unit": "kg/m3"}, {"measurement": "mass density", "setting": "[1]; 373 K, Pycnometric method, x1 = 0.1095", "value": "710.1 ± 31", "unit": "kg/m3"}]}
{"compound": "COC(=O)OC", "note": "[dimethyl carbonate]", "values": [{"measurement": "vapor or sublimation pressure", "setting": "[2]; 293 K", "value": 10, "unit": "kPa"}, {"measurement": "vapor or sublimation pressure", "setting": "[2]; 313 K", "value": "20 ± 20", "unit": "kPa"}, {"measurement": "vapor or sublimation pressure", "setting": "[2]; 353 K", "value": "70 ± 20", "unit": "kPa"}, {"measurement": "vapor or sublimation pressure", "setting": "[2]; 373 K", "value": "140 ± 20", "unit": "kPa"}]}
{"compound": "COC", "note": "[dimethyl ether]", "values": [{"measurement": "vapor or sublimation pressure", "setting": "[2]; 293 K", "value": "520 ± 40", "unit": "kPa"}, {"measurement": "vapor or sublimation pressure", "setting": "[2]; 313 K", "value": "900 ± 70", "unit": "kPa"}, {"measurement": "vapor or sublimation pressure", "setting": "[2]; 353 K", "value": "2240 ± 170", "unit": "kPa"}, {"measurement": "vapor or sublimation pressure", "setting": "[2]; 373 K", "value": "3260 ± 240", "unit": "kPa"}]}
{"compound": "O=O", "note": "[oxygen] + COC(=O)OC", "values": [{"measurement": "mass density", "setting": "[1]; 293.15 K, determining using the ratio of the masses to the volume of the sample., x1 = 0.0612", "value": "1087.6 ± 5.7", "unit": "kg/m3"}, {"measurement": "mass density", "setting": "[1]; 293.15 K, determining using the ratio of the masses to the volume of the sample., x1 = 0.0791", "value": "1062.4 ± 6.3", "unit": "kg/m3"}, {"measurement": "mass density", "setting": "[1]; 293.15 K, determining using the ratio of the masses to the volume of the sample., x1 = 0.097", "value": "1032 ± 6.7", "unit": "kg/m3"}, {"measurement": "mass density", "setting": "[1]; 293.15 K, determining using the ratio of the masses to the volume of the sample., x1 = 0.1266", "value": "984.7 ± 6.5", "unit": "kg/m3"}, {"measurement": "mass density", "setting": "[1]; 293.15 K, determining using the ratio of the masses to the volume of the sample., x1 = 0.1605", "value": "931.3 ± 8.4", "unit": "kg/m3"}, {"measurement": "mass density", "setting": "[1]; 293.15 K, determining using the ratio of the masses to the volume of the sample., x1 = 0.1977", "value": "838 ± 10", "unit": "kg/m3"}, {"measurement": "mass density", "setting": "[1]; 313 K, determining using the ratio of the masses to the volume of the sample., x1 = 0.0506", "value": "1056.6 ± 14", "unit": "kg/m3"}, {"measurement": "mass density", "setting": "[1]; 313 K, determining using the ratio of the masses to the volume of the sample., x1 = 0.061", "value": "1014.8 ± 16", "unit": "kg/m3"}, {"measurement": "mass density", "setting": "[1]; 313 K, determining using the ratio of the masses to the volume of the sample., x1 = 0.0748", "value": "960.2 ± 14", "unit": "kg/m3"}, {"measurement": "mass density", "setting": "[1]; 313 K, determining using the ratio of the masses to the volume of the sample., x1 = 0.099", "value": "885.7 ± 9.8", "unit": "kg/m3"}, {"measurement": "mass density", "setting": "[1]; 313 K, determining using the ratio of the masses to the volume of the sample., x1 = 0.1307", "value": "824.8 ± 6.4", "unit": "kg/m3"}, {"measurement": "mass density", "setting": "[1]; 313 K, determining using the ratio of the masses to the volume of the sample., x1 = 0.175", "value": "766.6 ± 5.5", "unit": "kg/m3"}, {"measurement": "mass density", "setting": "[1]; 353 K, determining using the ratio of the masses to the volume of the sample., x1 = 0.0412", "value": "988.5 ± 4.8", "unit": "kg/m3"}, {"measurement": "mass density", "setting": "[1]; 353 K, determining using the ratio of the masses to the volume of the sample., x1 = 0.0523", "value": "947.8 ± 21", "unit": "kg/m3"}, {"measurement": "mass density", "setting": "[1]; 353 K, determining using the ratio of the masses to the volume of the sample., x1 = 0.0614", "value": "882.2 ± 21", "unit": "kg/m3"}, {"measurement": "mass density", "setting": "[1]; 353 K, determining using the ratio of the masses to the volume of the sample., x1 = 0.0733", "value": "826.7 ± 29", "unit": "kg/m3"}, {"measurement": "mass density", "setting": "[1]; 353 K, determining using the ratio of the masses to the volume of the sample., x1 = 0.082", "value": "728.8 ± 19", "unit": "kg/m3"}, {"measurement": "mass density", "setting": "[1]; 353 K, determining using the ratio of the masses to the volume of the sample., x1 = 0.1018", "value": "685.3 ± 6.1", "unit": "kg/m3"}, {"measurement": "mass density", "setting": "[1]; 373 K, determining using the ratio of the masses to the volume of the sample., x1 = 0.0233", "value": "935.5 ± 12", "unit": "kg/m3"}, {"measurement": "mass density", "setting": "[1]; 373 K, determining using the ratio of the masses to the volume of the sample., x1 = 0.0347", "value": "900.2 ± 12", "unit": "kg/m3"}, {"measurement": "mass density", "setting": "[1]; 373 K, determining using the ratio of the masses to the volume of the sample., x1 = 0.0539", "value": "841.3 ± 11", "unit": "kg/m3"}, {"measurement": "mass density", "setting": "[1]; 373 K, determining using the ratio of the masses to the volume of the sample., x1 = 0.071", "value": "798.9 ± 16", "unit": "kg/m3"}, {"measurement": "mass density", "setting": "[1]; 373 K, determining using the ratio of the masses to the volume of the sample., x1 = 0.0858", "value": "712.5 ± 24", "unit": "kg/m3"}, {"measurement": "mass density", "setting": "[1]; 373 K, determining using the ratio of the masses to the volume of the sample., x1 = 0.0953", "value": "652.5 ± 25", "unit": "kg/m3"}]}
